Molecular target: PRMT5/MEP50 (Homo sapiens (Human), UniProt O14744)
Test: PRMT5 Biochemical Assay (PRMT5/MEP50 enzyme assay on peptide substrate, 3H-SAM Flashplate)
Details: PRMT5/MEP50 4 nM, 3H-SAM 75 nM, peptide 40 nM
From the text: General Materials. S-adenosylmethionine (SAM), S-adenosylhomocysteine (SAH), bicine, KCl, Tween20, dimethylsulfoxide (DMSO), bovine skin gelatin (BSG), and Tris(2-carboxyethyl)phosphine hydrochloride solution (TCEP) were purchased from Sigma-Aldrich at the highest level of purity possible. ^3H-SAM was purchase from American Radiolabeled Chemicals with a specific activity of 80 Ci/mmol. 384-well streptavidin Flashplates were purchased from PerkinElmer.
Substrates. Peptide representative of human histone H4 residues 1-15 was synthesized with a C-terminal linker-affinity tag motif and a C-terminal amide cap by 21st Century Biochemicals. […] The sequence was Ac-[…][K-Biot]-amide (SEQ ID NO.:3).
Full-length human MEP50 (NM_024102) clone was amplified from a human testis cDNA library incorporating a 5′ sequence encoding a 6-histidine tag (MHHHHHH) (SEQ ID NO.:5) fused directly to Arg 2 of MEP50. The amplified genes were sublconed into pENTR/D/TEV (Life Technologies) and subsequently transferred by Gateway™ attL×attR recombination to pDEST8 baculvirus expression vector (Life Technologies).
Protein Expression. Recombinant baculovirus and Baculovirus-Infected Insect Cells (BIIC) were generated according to Bac-to-Bac kit instructions (Life Technologies) and Wasilko, 2006, respectively. Protein over-expression was accomplished by infecting exponentially growing Spodoptera frugiperda (SF9) cell culture at 1.2×10^6 cell/ml with a 5000 fold dilution of BIIC stock. Infections were carried out at 27° C. for 72 hours, harvested by centrifugation, and stored at −80° C. for purification.
Protein Purification. […] Flag-PRMT5/6His-MeP50 was eluted with 300 mM Imidazole in the same buffer. […] Reference: Wasilko, D. J. and S. E. Lee: “TIPS: titerless infected-cells preservation and scale-up” Bioprocess J., 5 (2006), pp. 29-32.
General Procedure for PRMT5/MEP50 Enzyme Assays on Peptide Substrates.
The assays were all performed in a buffer consisting of 20 mM Bicine (pH=7.6), 1 mM TCEP, 0.005% BSG, and 0.002% Tween20, prepared on the day of use. Compounds in 100% DMSO (1 ul) were spotted into a polypropylene 384-well V-bottom plates (Greiner) using a Platemate Plus outfitted with a 384-channel head (Thermo Scientific). DMSO (1 ul) was added to Columns 11, 12, 23, 24, rows A-H for the maximum signal control and 1 ul of SAH, a known product and inhibitor of PRMT5/MEP50, was added to columns 11, 12, 23, 24, rows I-P for the minimum signal control. A cocktail (40 ul) containing the PRMT5/MEP50 enzyme and the peptide was added by Multidrop Combi (Thermo-Fisher). The compounds were allowed to incubate with PRMT5/MEP50 for 30 min at 25 degrees Celsius, then a cocktail (10 ul) containing ^3H-SAM was added to initiate the reaction (final volume=51 ul). The final concentrations of the components were as follows: PRMT5/MEP50 was 4 nM, ^3H-SAM was 75 nM, peptide was 40 nM, SAH in the minimum signal control wells was 100 uM, and the DMSO concentration was 1%. The assays were stopped by the addition of non-radioactive SAM (10 ul) to a final concentration of 600 uM, which dilutes the ^3H-SAM to a level where its incorporation into the peptide substrate is no longer detectable. 50 ul of the reaction in the 384-well polypropylene plate was then transferred to a 384-well Flashplate and the biotinylated peptides were allowed to bind to the streptavidin surface for at least 1 hour before being washed three times with 0.1% Tween20 in a Biotek ELx405 plate washer. The plates were then read in a PerkinElmer TopCount plate reader to measure the quantity of ^3H-labeled peptide bound to the Flashplate surface, measured as disintegrations per minute (dpm) or alternatively, referred to as counts per minute (cpm).
[formula] Where dpm=disintegrations per minute, cmpd=signal in assay well, and min and max are the respective minimum and maximum signal controls.

PRMT5/MEP50, sequence (O14744 other isoform, or with tags, fused parts or gaps): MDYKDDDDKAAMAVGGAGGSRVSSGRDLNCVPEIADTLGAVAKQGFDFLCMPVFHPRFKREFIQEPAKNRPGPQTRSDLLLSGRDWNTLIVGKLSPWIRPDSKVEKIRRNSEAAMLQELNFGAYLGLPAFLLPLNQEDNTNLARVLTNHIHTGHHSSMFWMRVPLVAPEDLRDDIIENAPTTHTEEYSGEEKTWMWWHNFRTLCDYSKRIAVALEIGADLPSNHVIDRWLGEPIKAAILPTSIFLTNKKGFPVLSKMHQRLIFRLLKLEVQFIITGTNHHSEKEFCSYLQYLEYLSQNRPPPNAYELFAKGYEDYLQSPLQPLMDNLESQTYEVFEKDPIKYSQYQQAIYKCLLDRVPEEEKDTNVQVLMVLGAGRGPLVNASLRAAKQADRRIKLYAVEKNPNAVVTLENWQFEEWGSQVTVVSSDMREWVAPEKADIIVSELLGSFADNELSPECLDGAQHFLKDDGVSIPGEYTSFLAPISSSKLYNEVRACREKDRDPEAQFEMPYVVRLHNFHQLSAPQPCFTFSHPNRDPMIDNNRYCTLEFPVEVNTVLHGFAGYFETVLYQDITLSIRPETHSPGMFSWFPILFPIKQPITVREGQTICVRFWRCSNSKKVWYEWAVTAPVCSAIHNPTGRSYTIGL
PRMT5/MEP50, sequence (Q9BQA1 other isoform, or with tags, fused parts or gaps partner): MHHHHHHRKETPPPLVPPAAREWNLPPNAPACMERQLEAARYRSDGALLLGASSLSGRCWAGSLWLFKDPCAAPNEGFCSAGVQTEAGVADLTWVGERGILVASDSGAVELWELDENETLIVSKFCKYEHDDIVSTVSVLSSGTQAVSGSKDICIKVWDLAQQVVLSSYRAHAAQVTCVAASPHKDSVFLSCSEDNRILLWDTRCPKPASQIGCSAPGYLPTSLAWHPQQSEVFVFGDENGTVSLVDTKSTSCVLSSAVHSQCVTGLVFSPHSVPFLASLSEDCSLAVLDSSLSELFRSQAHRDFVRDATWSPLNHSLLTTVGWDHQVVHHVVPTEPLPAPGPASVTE

Row | Structure (SMILES) | IC50 [nM]
1 | CS(=O)(=O)Nc1cccnc1OCC(=O)NCC(O)CN1CCc2ccccc2C1 (centres unmarked) [Compound 140] | 1000 to 10000
2 | CN(CC(O)CN1CCc2ccccc2C1)C(=O)CCc1ccccc1 (centres unmarked) [Compound 3] | 1000 to 10000
3 | N#Cc1ccc(OCC(=O)NCC(O)CN2CCc3ccccc3C2)cc1 (centres unmarked) [Compound 11] | 101 to 1000
4 | O=C(COc1ccc(F)cc1)NCC(O)CN1CCc2ccccc2C1 (centres unmarked) [Compound 10] | 1000 to 10000
5 | CNC(=O)c1ccccc1OCC(=O)NCC(O)CN1CCc2ccccc2C1 (centres unmarked) [Compound 112] | 101 to 1000
6 | NC(=O)c1cccc(OCC(=O)NCC(O)CN2CCc3ccccc3C2)c1 (centres unmarked) [Compound 34, 3-(2-((3-(3,4-dihydroisoquinolin-2(1H)-yl)-2-hydroxypropyl)amino)-2-oxoethoxy)benzamide] | 101 to 1000
7 | CN1CCC(c2ccccc2OCC(=O)NCC(O)CN2CCc3ccccc3C2)CC1 (centres unmarked) [Compound 134] | 101 to 1000
8 | N#Cc1cccc(OCC(=O)NCC(O)CN2CCc3ccccc3C2)c1 (centres unmarked) [Compound 8, 2-(3-cyanophenoxy)-N-(3-(3,4-dihydroisoquinolin-2(1H)-yl)-2-hydroxypropyl)acetamide] | 101 to 1000
9 | COc1ccc2cccc(OCC(=O)NC[C@H](O)CN3CCc4ccccc4C3)c2n1 [Compound 97] | 101 to 1000
10 | C[C@H](Oc1cccc2cccnc12)C(=O)NC[C@@H](O)CN1CCc2ccccc2C1 [Compound 72] | 1000 to 10000
11 | Cc1ccc(OCC(=O)NCC(O)CN2CCc3ccccc3C2)cc1 (centres unmarked) [Compound 9, N-(3-(3,4-dihydroisoquinolin-2(1H)-yl)-2-hydroxypropyl)-2-(p-tolyloxy)acetamide] | 101 to 1000
12 | O=C(COC1CCCCC1)NCC(O)CN1CCc2ccccc2C1 (centres unmarked) [Compound 24, 2-(cyclohexyloxy)-N-(3-(3,4-dihydroisoquinolin-2(1H)-yl)-2-hydroxypropyl)acetamide] | 101 to 1000
13 | NC(=O)c1ccc(OCC(=O)NCC(O)CN2CCc3ccccc3C2)cc1 (centres unmarked) [Compound 13] | 1000 to 10000
14 | O=C(Cc1ccccc1)NC[C@@H](O)CN1CCc2ccccc2C1 [Compound 57] | 10000 to 50000
15 | Cn1cc2c(OCC(=O)NCC(O)CN3CCc4ccccc4C3)cccc2n1 (centres unmarked) [Compound 118] | 101 to 1000
16 | CC(C)(C)OC(=O)Nc1ccccc1OCC(=O)NCC(O)CN1CCc2ccccc2C1 (centres unmarked) [Compound 141] | 1000 to 10000
17 | Nc1ncccc1OCC(=O)NCC(O)CN1CCc2ccccc2C1 (centres unmarked) [Compound 145] | 1000 to 10000
18 | CC(=O)N1CCN(S(=O)(=O)c2ccccc2OCC(=O)NCC(O)CN2CCc3ccccc3C2)CC1 (centres unmarked) [Compound 122] | 101 to 1000
19 | O=C(COCc1cccnc1)NCC(O)CN1CCc2ccccc2C1 (centres unmarked) [Compound 152, N-(3-(3,4-dihydroisoquinolin-2(1H)-yl)-2-hydroxypropyl)-2-(pyridin-3-ylmethoxy)acetamide] | 1000 to 10000
20 | Cn1ccnc1-c1ccccc1OCC(=O)NCC(O)CN1CCc2ccccc2C1 (centres unmarked) [Compound 138] | 101 to 1000
21 | O=C(COc1ccccc1OCCN1CCOCC1)NC[C@@H](O)CN1CCc2ccccc2C1 [Compound 87] | 1000 to 10000
22 | CC(C)(Oc1ccccc1)C(=O)NCC(O)CN1CCc2ccccc2C1 (centres unmarked) [Compound 25, N-(3-(3,4-dihydroisoquinolin-2(1H)-yl)-2-hydroxypropyl)-2-methyl-2-phenoxypropanamide] | 101 to 1000
23 | O=C(CC1CCCCC1)NC[C@@H](O)CN1CCc2ccccc2C1 [Compound 58] | 10000 to 50000
24 | CN1CC(c2ccccc2OCC(=O)NCC(O)CN2CCc3ccccc3C2)C1 (centres unmarked) [Compound 135] | 1000 to 10000
25 | O=C(COc1ccccc1C1CCNC1)NCC(O)CN1CCc2ccccc2C1 (centres unmarked) [Compound 116] | 1000 to 10000
26 | CN(C)c1cncc(OCC(=O)NCC(O)CN2CCc3ccccc3C2)c1 (centres unmarked) [Compound 143] | 1000 to 10000
27 | CN(c1cccc(OCC(=O)NCC(O)CN2CCc3ccccc3C2)c1)S(C)(=O)=O (centres unmarked) [Compound 142] | 101 to 1000
28 | NS(=O)(=O)c1ccc(OCC(=O)NCC(O)CN2CCc3ccccc3C2)cc1 (centres unmarked) [Compound 52] | 1000 to 10000
29 | CN(C)c1ccc(OCC(=O)NCC(O)CN2CCc3ccccc3C2)cc1 (centres unmarked) [Compound 35] | 101 to 1000

Source: patent publication US9765068B2, “PRMT5 inhibitors and uses thereof” (Epizyme, Inc., priority 2012, dated 2017)
